Assay results as given in PubChem BioAssay (NCI).
Where “and” joins values, the source holds several entries; their conditions need not be identical. Equal entries are not always repeated.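 Test compounds were applied to cells in 96-well plates for 48 hours at 5 doses. GI50: concentration for 50% inhibition of growth. Definition used: TGI = concentration required for complete inhibition of growth.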

Legend:
Assay in all cases: NCI tumour cell line growth inhibition, 48 h
[1] = test system: CCRF-CEM leukemia
[2] = test system: DU-145 prostate
[3] = test system: HCC-2998 colon
[4] = test system: IGROV1 ovarian
[5] = test system: MALME-3M melanoma
[6] = test system: NCI-H226 lung
[7] = test system: NCI-H460 lung
[8] = test system: NCI-H522 lung
[9] = test system: SK-OV-3 ovarian
[10] = test system: T-47D breast

| Compound | GI50 [1] | TGI [1] | GI50 [2] | TGI [2] | GI50 [3] | TGI [3] | GI50 [4] | TGI [4] | GI50 [5] | TGI [5] | GI50 [6] | TGI [6] | GI50 [7] | TGI [7] | GI50 [8] | TGI [8] | GI50 [9] | TGI [9] | GI50 [10] | TGI [10] |
| --- | --- | --- | --- | --- | --- | --- | --- | --- | --- | --- | --- | --- | --- | --- | --- | --- | --- | --- | --- | --- |
| Oc1c(I)cc(I)c2cccnc12 | 6.95 µM | > 100 µM | 8.25 µM | 58 µM | 2.44 µM | 7.34 µM | 4.24 µM | 30.8 µM | 0.573 µM | 27.6 µM | 4.51 µM | 29.2 µM | 2.93 µM | 10.4 µM | 2.96 µM | > 100 µM | 5.17 µM | 29.2 µM | 2.88 µM | 15.6 µM |
| COc1cc2nc(-c3cc(F)ccc3O)nc(N[C@@H]3CNC[C@H]3C(C)(C)O)c2cc1OC | 2.29 µM | 7.3 µM | 1.51 µM | 2.96 µM | 1.92 µM | 3.47 µM | 1.47 µM | 3.43 µM | 1.78 µM | 3.24 µM | 1.48 µM | 4.38 µM | 1.83 µM | 3.47 µM | 1.67 µM | 3.11 µM | 2.29 µM | 4.72 µM | 2.06 µM | 3.98 µM |
| CC1=C(CC(=O)c2cccc([N+](=O)[O-])c2)C(=O)c2ccccc2C1=O | 3.19 µM | 19.3 µM | 7.55 µM | 20.1 µM | 38 µM | > 100 µM | 4.62 µM | 29 µM | 4.95 µM | 18.3 µM | 18.7 µM | 46.5 µM | 18.2 µM | > 100 µM | 2.97 µM | 8.84 µM | 28.6 µM | 99.2 µM | 2.46 µM | 8.47 µM |
| Oc1cccc2ccc(N/N=C/c3cc(CN4CCOCC4)c(O)c4ncccc34)nc12 | 0.0391 µM | 9.95 µM | 0.0645 µM | 6.22 µM | 0.0368 µM | 1.93 µM | 0.066 µM | 4.94 µM | 0.032 µM | 1.89 µM | 0.533 µM | 5.57 µM | < 0.0104 µM | 1.2 µM | < 0.0165 µM | 1.48 µM | 0.0272 µM | 0.368 µM | 0.0274 µM | 0.682 µM |
| O=C(CC1(O)C(=O)N(Cc2ccccc2)c2ccccc21)c1ccc(C(=O)NCC2CCC3(CC2)OOC2(CCCCC2)OO3)cc1 (stereo not given) | 0.421 µM | 2.17 µM | 0.25 µM | 0.625 µM | 2.3 µM | 5.06 µM | 0.408 µM | 1.62 µM | 0.566 µM | 2 µM | 3.5 µM | 10.8 µM | 1.29 µM | 3.51 µM | 0.24 µM | 0.73 µM | 6.57 µM | > 51.1 µM | 1.41 µM | 4.04 µM |
| CC1(C)CC(=O)C2=C(C1)OC(N)=C(c1nc(-c3ccccc3)cs1)C2c1ccc(Br)cc1 (stereo not given) | 58.6 µg/mL | > 150 µg/mL | 70.9 µg/mL | > 150 µg/mL | 44.4 µg/mL | > 150 µg/mL | 90.9 µg/mL | > 150 µg/mL | > 150 µg/mL | > 150 µg/mL | 22.8 µg/mL | 96.8 µg/mL | 42.3 µg/mL | > 150 µg/mL | 42.1 µg/mL | > 150 µg/mL | 102 µg/mL | > 150 µg/mL | 44.6 µg/mL | > 150 µg/mL |
| Cc1ccc(-c2nc([P+](c3ccccc3)(c3ccccc3)c3ccccc3)c(S(=O)(=O)c3ccc(C)cc3)o2)cc1 | 0.606 µM | 6.94 µM | 1.27 µM | 2.52 µM | 1.45 µM | 3.01 µM | 1.61 µM | 3.15 µM | 1.02 µM | 2.19 µM | 5.05 µM | 24.6 µM | 1.64 µM | 3.43 µM | 1.6 µM | 3.67 µM | 3.74 µM | 12.5 µM | 1.99 µM | 5.23 µM |
| Cc1cc(C#Cc2ccc(C(C)(C)C)cc2)ccc1-n1c(/C=C/c2ccc(O)cc2O)nc2ccccc2c1=O | 3.85 µM | > 100 µM | 3.42 µM | 13.3 µM | 1.93 µM | 3.85 µM | 7.48 µM | 26.8 µM | 8.42 µM | 23.2 µM | 2.17 µM | 8.25 µM | 1.82 µM | 3.75 µM | 1.83 µM | 5.5 µM | 10.9 µM | 30.6 µM | 3.85 µM | 24.4 µM |
| O=C(O)Cc1cccnc1 |  | > 100 µM |  | > 100 µM |  | > 100 µM |  | > 100 µM |  | > 100 µM |  | > 100 µM |  | > 100 µM |  | > 100 µM |  | > 100 µM |  | > 100 µM |
| Cc1cccc2c3c(sc12)C(c1ccc(Cl)cc1)C(C#N)=C(N)O3 (stereo not given) | 0.382 µM | 32.1 µM | 0.459 µM | 11.6 µM | 0.67 µM | 6.43 µM | 0.426 µM | 11.8 µM | 0.653 µM | 20 µM | 0.763 µM | 7.46 µM | 0.37 µM | 3.92 µM | 0.314 µM | 4.95 µM | 3.59 µM | 27.2 µM | 0.411 µM | 25.3 µM |
| Cc1cc(C)nc(SC2=C(Nc3cc(Cl)ccc3O)C(=O)N(Cc3ccccc3)C2=O)n1 | 7.38 µM | 124 µM | 39 µM | 108 µM | > 160 µM | > 160 µM | 25.3 µM | 88.6 µM | 39.4 µM | 99.7 µM | 1.78 µM | 47.7 µM | 56.6 µM | > 160 µM | 17.4 µM | > 160 µM | > 160 µM | > 160 µM | 15 µM | 63.2 µM |
| O=C1OC(C(O)CO)C(O)=C1O (stereo not given) | 239 µM and 275 µM | 576 µM and 792 µM | 1610 µM and 1690 µM | 3040 µM and 3110 µM | > 10000 µM | > 10000 µM | 2040 µM and > 2490 µM | 4140 µM and > 4350 µM | 1540 µM and 1760 µM | 2990 µM and 3550 µM | 2150 µM and 4450 µM | 4870 µM and > 6830 µM | > 10000 µM | > 10000 µM | 1590 µM and 293 µM | 3380 µM and > 3070 µM | 6030 µM and > 4760 µM | > 10000 µM | 2080 µM and 2100 µM | 4800 µM and 4380 µM |
